Experimental data as given in article PMC10663540, “Structure-based discovery of dual pathway inhibitors for SARS-CoV-2 entry” (Nature Communications, 2023).
pEC50: −log10 of the molar value. “And” between values parts separate entries of the source, which are not always exact repeats. Equal entries are not always repeated. Where two headings read alike, the source gives them in different places.

How the values were obtained:
SARS-CoV-2 Delta variant = assay: microbe, parasite or virus in culture; assay type: cell-based
[1] = test system: SARS-CoV-2 Omicron BA.2 variant; assay: microbe, parasite or virus in culture; assay type: cell-based; conditions: for pEC50: Severe acute respiratory syndrome coronavirus 2
[2] = Severe acute respiratory syndrome coronavirus 2, Calu-3; read-out: Antiviral efficacy EC50 (95% CI)
[3] = Calu-3, Omicron BA.2, […], read-out: Antiviral efficacy EC50 (95% CI)
[4] = Calu-3, Omicron BA.2, one representative replicate, before reprocessing, read-out: EC50, original manuscript version
[5] = Calu-3; 0.0012207 μM; replicates
[6] = Calu-3; 0.00488281 μM; replicates
[7] = Calu-3; 0.0195312 μM; replicates
[8] = Calu-3; 0.078125 μM; replicates
[9] = Severe acute respiratory syndrome coronavirus 2, Calu-3, read-out: Antiviral efficacy EC50 (95% CI)
[10] = Severe acute respiratory syndrome coronavirus 2, Calu-3, read-out: Inhibition: Delta

Structure (SMILES): CN1CCN(C(=O)N[C@@H](Cc2ccccc2)C(=O)N[C@H](/C=C/S(=O)(=O)c2ccccc2)CCc2ccccc2)CC1 [K777]
- Inhibition: Delta (SARS-CoV-2 Delta variant; Calu-3; 0.00256 μM; replicates): -6.46e-6% and 5.80% and -22.49%
- Inhibition: Delta (SARS-CoV-2 Delta variant; Calu-3; 0.0128 μM; replicates): 16.53% (2×) and 0.45%
- Inhibition: Delta (SARS-CoV-2 Delta variant; Calu-3; 0.064 μM; replicates): 24.66% (2×) and 0.45%
- Inhibition: Delta (SARS-CoV-2 Delta variant; Calu-3; 8 μM; replicates): 82.03%
- Inhibition: Delta (SARS-CoV-2 Delta variant; Calu-3; 40 μM; replicates): 97.04%
- inhibition at 8 µM (SARS-CoV-2 Delta variant; Severe acute respiratory syndrome coronavirus 2, Calu-3, Calu-3; 8 μM; replicates; read-out: Inhibition: Delta): 85.5%
- inhibition at 40 µM (SARS-CoV-2 Delta variant; Severe acute respiratory syndrome coronavirus 2, Calu-3, Calu-3; 40 μM; replicates; read-out: Inhibition: Delta): 98%
- pEC50 (SARS-CoV-2 Delta variant; [2]): 6.19
- Inhibition: Omicron BA.2 ([1]; Calu-3, 0.00457247 μM, rep1-rep2): -0.32% and 3.09%
- Inhibition: Omicron BA.2 ([1]; Calu-3, 0.123457 μM, rep1-rep2): 90.17%
- Inhibition: Omicron BA.2 ([1]; Calu-3, 0.37037 μM, rep1-rep2): 90.95%
- Inhibition: Omicron BA.2 ([1]; Calu-3, 1.11111 μM, rep1-rep2): 85.59%
- Inhibition: Omicron BA.2 ([1]; Calu-3, 3.33333 μM, rep1-rep2): 91.43%
- Inhibition: Omicron BA.2 ([1]; Calu-3, 10 μM, rep1-rep2): 91.43%
- inhibition at 0.123457 µM ([1]; Severe acute respiratory syndrome coronavirus 2, Calu-3, Calu-3, 0.123457 μM, rep1-rep2): 70.6%
- inhibition at 0.37037 µM ([1]; Severe acute respiratory syndrome coronavirus 2, Calu-3, Calu-3, 0.37037 μM, rep1-rep2): 87.7%
- inhibition at 1.11111 µM ([1]; Severe acute respiratory syndrome coronavirus 2, Calu-3, Calu-3, 1.11111 μM, rep1-rep2): 97.1%
- inhibition at 3.33333 µM ([1]; Severe acute respiratory syndrome coronavirus 2, Calu-3, Calu-3, 3.33333 μM, rep1-rep2): 98%
- inhibition at 10 µM ([1]; Severe acute respiratory syndrome coronavirus 2, Calu-3, Calu-3, 10 μM, rep1-rep2): 99.2%
- pEC50 [1, 3]: 7.85
- pEC50 [1, 4]: 7.11

Structure (SMILES): CC(C)(NS(=O)(=O)c1ccc2c(Cl)cnc(N=C(N)N)c2c1)C(=O)O [UK-371804]
- Inhibition: Delta (SARS-CoV-2 Delta variant; [5]): -13.87% and -11.09%
- Inhibition: Delta (SARS-CoV-2 Delta variant; [6]): -7.79% and -36.72%
- Inhibition: Delta (SARS-CoV-2 Delta variant; [7]): -13.87% and -11.09%
- Inhibition: Delta (SARS-CoV-2 Delta variant; [8]): 5.76%
- Inhibition: Delta (SARS-CoV-2 Delta variant; Calu-3; 0.3125 μM; replicates): 29.88% and 14.57%
- Inhibition: Delta (SARS-CoV-2 Delta variant; Calu-3; 1.25 μM; replicates): 77.84%
- Inhibition: Delta (SARS-CoV-2 Delta variant; Calu-3; 5 μM; replicates): 90.58%
- Inhibition: Delta (SARS-CoV-2 Delta variant; Calu-3; 20 μM; replicates): 90.58%
- Selectivity index (SI = CC50/EC50) (SARS-CoV-2 Delta variant; Calu-3; Delta): 405
- inhibition at 0.078125 µM (SARS-CoV-2 Delta variant; Severe acute respiratory syndrome coronavirus 2, Calu-3, Calu-3; 0.078125 μM; replicates): 7.48%
- inhibition at 1.25 µM (SARS-CoV-2 Delta variant; Severe acute respiratory syndrome coronavirus 2, Calu-3, Calu-3; 1.25 μM; replicates; read-out: Inhibition: Delta): 77.3%
- inhibition at 5 µM (SARS-CoV-2 Delta variant; Severe acute respiratory syndrome coronavirus 2, Calu-3, Calu-3; 5 μM; replicates; read-out: Inhibition: Delta): 88.6%
- inhibition at 20 µM (SARS-CoV-2 Delta variant; Severe acute respiratory syndrome coronavirus 2, Calu-3, Calu-3; 20 μM; replicates; read-out: Inhibition: Delta): 93%
- pEC50 (SARS-CoV-2 Delta variant; [2]): 6.37

Structure (SMILES): CCOC(=O)C1OC1C(=O)NC(CC(C)C)C(=O)NCCC(C)C (centres unmarked) [E64d]
- Inhibition: Omicron BA.2 ([1]; 0.0411523 µM): -1.22%
- Inhibition: Omicron BA.2 ([1]; 0.123457 µM): 20.89% and 27.12%
- Inhibition: Omicron BA.2 ([1]; 0.37037 µM): 68.35% and 58.49%
- Inhibition: Omicron BA.2 ([1]; 1.11111 µM): 89.97% and 78.59%
- Inhibition: Omicron BA.2 ([1]; 3.33333 µM): 93.67% and 90.37%
- Inhibition: Omicron BA.2 ([1]; 10 µM): 97.22% and 98.95%
- pEC50 [1, 3]: 6.62
- pEC50 [1, 4]: 6.64

Structure (SMILES): NC(N)=Nc1ccc(C(=O)OCCN2CCN(C(=O)N[C@@H](Cc3ccccc3)C(=O)N[C@H](/C=C/S(=O)(=O)c3ccccc3)CCc3ccccc3)CC2)cc1 [212-148]
- Inhibition: Delta/Calu-3 (SARS-CoV-2 Delta variant; 212-148 8 μM; Fig. 5e): 89.60% and 87.76%
- Inhibition: Delta/Calu-3 (SARS-CoV-2 Delta variant; 212-148 40 μM; Fig. 5e): 98.01%
- Selectivity index (SI = CC50/EC50) (SARS-CoV-2 Delta variant; Calu-3; Delta): 1,476
- block of viral replication in TCID50 assay (in words) (SARS-CoV-2 Delta variant; Calu-3; delta strain or omicron strain BA.2 (Fig. 5e)): completely blocked
- inhibition at 8 µM (SARS-CoV-2 Delta variant; Severe acute respiratory syndrome coronavirus 2, Calu-3, 212-148 8 μM; Fig. 5e; read-out: Inhibition: Delta/Calu-3): 85.5%
- inhibition at 40 µM (SARS-CoV-2 Delta variant; Severe acute respiratory syndrome coronavirus 2, Calu-3, 212-148 40 μM; Fig. 5e; read-out: Inhibition: Delta/Calu-3): 96.1%
- inhibition at 200 µM (SARS-CoV-2 Delta variant; Severe acute respiratory syndrome coronavirus 2, Calu-3, 212-148 200 μM; Fig. 5e): 100%
- pEC50 (SARS-CoV-2 Delta variant; [2]): 6.63
- Inhibition: BA.2/Calu-3 ([1]; 212-148 0.00256 μM, Fig. 5e): 7.11%
- Inhibition: BA.2/Calu-3 ([1]; 212-148 0.064 μM, Fig. 5e): 29.70% and 52.65%
- Inhibition: BA.2/Calu-3 ([1]; 212-148 8 μM, Fig. 5e): 88.58%
- Selectivity index (SI = CC50/EC50) ([1]; Calu-3, Omicron BA.2): 5,391
- inhibition at 8 µM ([1]; Severe acute respiratory syndrome coronavirus 2, Calu-3, 212-148 8 μM, Fig. 5e): 85.9%
- inhibition at 40 µM ([1]; Severe acute respiratory syndrome coronavirus 2, Calu-3, 212-148 40 μM, Fig. 5e): 99.4%
- pEC50 [1, 3]: 7.19

Structure (SMILES): CN(C)C(=O)COC(=O)Cc1ccc(OC(=O)c2ccc(NC(=N)N)cc2)cc1 [Camostat]
- Inhibition: Delta (SARS-CoV-2 Delta variant; 0.078125 µM): 31.59% and 52.79%
- Inhibition: Delta (SARS-CoV-2 Delta variant; 0.3125 µM): 64%
- Inhibition: Delta (SARS-CoV-2 Delta variant; 1.25 µM): 96.40%
- Inhibition: Delta (SARS-CoV-2 Delta variant; 5 µM): 92.99%
- Inhibition: Delta (SARS-CoV-2 Delta variant; 20 µM): 91.24%
- pEC50 (SARS-CoV-2 Delta variant; [9]): 6.96
- inhibition at 0.3125 µM (SARS-CoV-2 Delta variant; [10]): 53.9%
- inhibition at 1.25 µM (SARS-CoV-2 Delta variant; [10]): 95.4%
- inhibition at 5 µM (SARS-CoV-2 Delta variant; [10]): 92.4%
- inhibition at 20 µM (SARS-CoV-2 Delta variant; [10]): 88.9%

Structure (SMILES): CCOC(=O)c1ccc(OC(=O)CCCCCNC(=N)N)cc1 [Gabexate]
- Inhibition: Delta (SARS-CoV-2 Delta variant; [5]): 14.57% and 29.88%
- Inhibition: Delta (SARS-CoV-2 Delta variant; [6]): -54.36% and -37.95%
- Inhibition: Delta (SARS-CoV-2 Delta variant; [7]): -64.93% and -37.95%
- Inhibition: Delta (SARS-CoV-2 Delta variant; [8]): 31.59% and -7.79%
- Inhibition: Delta (SARS-CoV-2 Delta variant; Calu-3; 0.3125 μM; replicates): 39.67%
- Inhibition: Delta (SARS-CoV-2 Delta variant; Calu-3; 1.25 μM; replicates): -34.59% and 12.43%
- Inhibition: Delta (SARS-CoV-2 Delta variant; Calu-3; 5 μM; replicates): 64.87% and -37.95%
- Inhibition: Delta (SARS-CoV-2 Delta variant; Calu-3; 20 μM; replicates): -11.09% and 39.67%
- inhibitory efficacy (in words) (SARS-CoV-2 Delta variant; Calu-3; Delta): negligible
- inhibition at 0.3125 µM (SARS-CoV-2 Delta variant; Severe acute respiratory syndrome coronavirus 2, Calu-3, Calu-3; 0.3125 μM; replicates; read-out: Inhibition: Delta): 53.9%
- pEC50 (SARS-CoV-2 Delta variant; [2]): < 4.70

Structure (SMILES): N=C(N)c1ccc2cc(OC(=O)c3ccc(N=C(N)N)cc3)ccc2c1 [Nafamostat]
- Inhibition: Delta (SARS-CoV-2 Delta variant; 0.00128 µM): -1.10% and 5.80% and -6.46e-6%
- Inhibition: Delta (SARS-CoV-2 Delta variant; 20 µM): 99.61%
- pEC50 (SARS-CoV-2 Delta variant; [9]): 7.58
- inhibition at 0.8 µM (SARS-CoV-2 Delta variant; [10]): 98.8%
- inhibition at 4 µM (SARS-CoV-2 Delta variant; [10]): 98.6%
- inhibition at 20 µM (SARS-CoV-2 Delta variant; [10]): 99.8%
- inhibition at […] (SARS-CoV-2 Delta variant; [10]): 90.6% and 87.8%
